Like-named read-outs stand apart in the source and are kept apart here.
Experiments:
EGFR^L858R Ba/F3 cells = assay: Antiproliferation assay (CellTiter-Glo); format: cell-based; conditions: vs ZNL-0056 and ZNL-0091
Description: (§1) Figure S6 Dose-response curves for the indicated compounds in EGFRL858R, EGFRL858R/C797S, and EGFRL858R/C775S Ba/F3 cells following 72 h of treatment. Cell viability was assessed with CellTiter-Glo.
(§2) Data are presented as the mean ± SEM (n = 4). Representative data from three independent experiments
(§3) (1 picture or pasted object on this page, not shown here)
(§4) For infection of Ba/F3 cells, 2.5 mL of viral supernatant and 8 μg/mL polybrene was added to 2.5 million cells per well in six-well plates. The plate was centrifuged at 2500 rpm for 90 minutes at 37 °C for the spin infection. Then, virus-containing medium was removed 48 hours later and successfully infected cells were selected with the addition of 1 μg/mL puromycin to the medium.
(§5) After 3 days, cells were transferred into the fresh medium without IL-3 and puromycin. IL-3-independent transformed cells were maintained in RPMI medium 1640 supplemented with 10%
(§6) FBS. Expression of EGFR was examined by Western blot.
(§7) Immunoblotting and antibodies
(§8) Cells were lysed in RIPA buffer (150 mM NaCl, 1.0% IGEPAL® CA-630, 0.5% sodium deoxycholate, 0.1% SDS, 50 mM Tris, pH 8.0) (Sigma, Cat# R0278) with protease inhibitor and phosphatase inhibitor (Roche). The protein concentrations were measured by BCA analysis (Thermo Fisher Scientific, Cat # PI23225). […]
(§9) or IRDye 680RD goat anti-Mouse IgG (LICOR Biosciences , Cat # 926-68070) secondary antibodies at room temperature for 1 hour. The membranes were detected on Odyssey CLx system. […]
(§10) treatment. Cell viability was determined by using CellTiter-Glo (Promega #G7571) according to the manufacturer’s instructions, measuring luminescence using an Envision plate-reader (PerkinElmer Inc.). […]
(§11) After 6 hours treatment, cells were pelleted, washed with PBS once and lysed with IP lysis buffer (25mMTris-HCl pH 7.4, 150mM NaCl, 1 mM EDTA, 1% NP-40 and 5% glycerol) (Thermo Fisher Scientific, Cat#87788) containing protease/phosphatase inhibitor cocktail (Roche). The protein concentrations were measured by BCA analysis (Pierce). […]

[1] = tested on: EGFR^L858R/C775S Ba/F3 cells; assay: Antiproliferation assay (CellTiter-Glo); format: cell-based; conditions: vs EGFR^L858R Ba/F3
Description: as §1, §2, §3, §4, §5, §6, §7, §8, §9, §10, §11

MKK7 = molecular target: T1, MKK7 (Homo sapiens, UniProt O14733); assay: MKK7 binding, KdELECT assays (DiscoverX); conditions: for fold loss of potency: vs ZNL-8162
T1 construct: purchased DiscoverX
T1 sequence (O14733 1-419): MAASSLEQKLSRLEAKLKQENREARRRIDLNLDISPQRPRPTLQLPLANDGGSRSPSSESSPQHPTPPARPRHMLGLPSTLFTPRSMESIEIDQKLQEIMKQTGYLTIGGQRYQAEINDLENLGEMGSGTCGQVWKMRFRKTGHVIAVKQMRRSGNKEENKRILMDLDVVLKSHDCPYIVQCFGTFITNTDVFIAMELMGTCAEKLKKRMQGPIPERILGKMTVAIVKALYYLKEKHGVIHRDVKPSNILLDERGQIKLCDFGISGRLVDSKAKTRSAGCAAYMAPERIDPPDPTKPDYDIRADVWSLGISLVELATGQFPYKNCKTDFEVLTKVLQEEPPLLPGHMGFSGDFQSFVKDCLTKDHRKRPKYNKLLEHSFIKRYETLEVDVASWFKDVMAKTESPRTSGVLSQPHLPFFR
Source text: Figure 2 ZNL-8162 is a molecular bident for MKK7. (A) Compound structures for MKK7-targeting molecular bident (ZNL-8162) and its relatives lacking one or both cysteine-reactive groups. (B) Covalent modeling for ZNL-8162 engagement of MKK7(PDB: 6YG3). (C) MS/MS spectrum of ZNL-8162 covalently modifying Cys218 and Cys276 of MKK7. Red and yellow circles indicate ions of type y for sequences marked (1) and (2), respectively. Blue circles indicate ions of b for sequence (1). *, carbamidomethyl cysteine, Δ, oxidized methionine. (D) MKK7 binding data were obtained from KdELECT assays (DiscoverX). Data are presented as mean ± s.d. of n = 2 biologically independent samples.
Table S2. […]

p-JNK1/2 = assay: Immunoblot of MKK7-JNK pathway in MDA-MB-231 cells; format: cell-based; conditions: MDA-MB-231, anisomycin, 16 h, up to 10 μM
Description: Figure S1. Effects of the indicated compounds on the MKK7 -JNK pathway in MDA -MB-231 cells after 16 h treatment. MDA -MB-231 cells were pretreated with anisomycin for 45 min prior to the addition of the indicated compounds f or 16 h. Representative data from two independent […]
Anisomycin (10 μg/mL) - + + +
(1 picture or pasted object on this page, not shown here) […]
as §7
Cells were lysed in RIPA buffer (150 mM NaCl, 1.0% IGEPAL® CA-630, 0.5% sodium deoxycholate, 0.1% SDS, 50 mM Tris, pH 8.0) (Sigma, Cat# R0278) with protease inhibitor and phosphatase inhibitor (Roche). The protein concentrations were measured by BCA analysis (Thermo Fisher Scientific, Cat # PI23225). Equal amounts of protein were resolved by 4-12% Bis-Tris gels (Life Technologies), and then transferred to the Immuno-Blot PVDF membrane (BioRad, cat # 1620177). The membranes were blocked by Intercept blocking buffer (LI-COR, cat #927-60001) for 1 hour at room temperature. Proteins were probed with appropriate primary antibodies at 4 ℃ overnight and then with IRDye®800-labeled goat anti-rabbit IgG (LICOR Biosciences, cat […]
or IRDye 680RD goat anti-Mouse IgG (LICOR Biosciences , Cat # 926-68070) secondary antibodies at room temperature for 1 hour. The membranes were detected on Odyssey CLx system.
Antibodies used in this study include anti-following proteins: EGFR (Cell signaling Technology, […]
Akt (Cell signaling Technology, # 9272L, 1:1000), p-Akt (Cell Signaling Technology, #4060S,

EGFR = tested on: T2, EGFR; assay: Cellular target engagement assays (competitive pulldown); format: cell-based; conditions: 1 μM probe
T2 construct: expressed in transfected cells; host or cells: Ba/F3 (murine pro-B cells transduced with an EGFR mutant expression vector)
Description: Figure 4 ZNL-0056 covalently engages Cys775 and Cys797 in EGFR Ba/F3 cells. (A) Carton of competition EGFR pulldown strategy to test covalent EGFR engagement in cells. (B) Competitive pulldown assay in EGFR^L858R Ba/F3 cells treated with ZNL-0056 at the indicated concentrations for 6 h. Cell lysates were incubated with bio-osimertinib. (C) Competitive pulldown assay in EGFR^L858R Ba/F3 cells treated with ZNL-0056 at the indicated concentrations for 6 h. Cell lysates were incubated with bio-ZNL-0013, which competes for the binding pocket of the target kinase. (D) Competitive pulldown assay in EGFR^L858R/C797S Ba/F3 cells treated with ZNL-0056 at the indicated concentrations for 6 h. Cell lysates were incubated with bio-ZNL-0013, which competes for the binding pocket of the target kinase. Western blotting showing the pulldown (PD) or input (total lysate) of EGFR. […]
as §10, §11

[2] = Figure 2D, read-out: IC50 against MKK7

## C=CC(=O)Nc1cc(C(=O)Nc2nc3cccc(C)c3n2[C@@H]2CCCCN(C(C)=O)C2)cs1 [ZNL-0013]
EGFR^L858R Ba/F3 cells
  cell growth inhibition activity, fold weaker: about 5 fold
[1]
  potency loss (shift) in the EGFR^L858R/C775S mutant: 20 fold

## C=CC(=O)Nc1ccccc1Nc1nc(NC2CCN(C(=O)C=C)C2)ncc1Cl (centres unmarked) [ZNL-8162]
MKK7; [2]
  IC50: 133 nM
MKK7; from ZNL-8163 and ZNL-8165 IC50 data, read-out: IC50 estimated from single warhead compounds assuming independent contributions from both covalent bonds
  IC50: ~182 nM
p-JNK1/2
  inhibition of p-JNK1/2: strong inhibition

## C=CC(=O)Nc1ccccc1Nc1nc(NC2CCN(C(=O)CC)C2)ncc1Cl (centres unmarked) [ZNL-8163]
MKK7; [2]
  IC50: 437 nM
MKK7
  fold loss of potency: ~3 fold
p-JNK1/2
  inhibition of p-JNK1/2: less potency

## C=CC(=O)N1CCC(Nc2ncc(Cl)c(Nc3ccccc3NC(=O)CC)n2)C1 (centres unmarked) [ZNL-8165]
MKK7; [2]
  IC50: 313 nM
MKK7
  fold loss of potency: ~3 fold
p-JNK1/2
  inhibition of p-JNK1/2: less potency

## CCC(=O)Nc1ccccc1Nc1nc(NC2CCN(C(=O)CC)C2)ncc1Cl (centres unmarked) [ZNL-8166]
MKK7; [2]
  IC50: > 10000 nM
p-JNK1/2
  inhibition of p-JNK1/2: did not exhibit any inhibition

## C=CC(=O)Nc1cc(C(=O)Nc2nc3cccc(C)c3n2[C@@H]2CCCCN(C(=O)CCOCCOCCOCCOCCNC(=O)CCCC[C@@H]3SC[C@@H]4NC(=O)N[C@@H]43)C2)cs1 [bio-ZNL-0013]
EGFR
  enrichment of EGFR from cell lysate under denaturing conditions: significant enrichment

Reference: article PMC11212140, “Molecular Bidents with Two Electrophilic Warheads as a New Pharmacological Modality” (ACS Central Science, 2024)
